In ChEMBL document CHEMBL1201862, “PubChem BioAssay data set” (2004):
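Briefly, cells in 96-well plates were exposed to five compound concentrations for 48 h, and endpoints were estimated by linear interpolation. GI50 marks 50% less growth.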 Active and inactive are the calls of the source. No stated cut-off is given here; in the data, active = GI50 up to about 1.1 µM and inactive = higher.

Tests used:
Experiment in all cases: growth of human tumour cells (NCI), 48 h
HOP-92 = tested on: HOP-92
COLO 205 = tested on: COLO 205
CCRF-CEM = tested on: CCRF-CEM
MOLT-4 = tested on: MOLT-4
DU-145 = tested on: DU-145
HL-60 = tested on: HL-60
SK-MEL-28 = tested on: SK-MEL-28
HCC 2998 = tested on: HCC 2998
M14 = tested on: M14
UACC-62 = tested on: UACC-62
MCF7 = tested on: MCF7
786-0 = tested on: 786-0
K562 = tested on: K562
RXF 393 = tested on: RXF 393
U-251 = tested on: U-251
SW-620 = tested on: SW-620
SR = tested on: SR
HOP-62 = tested on: HOP-62
UO-31 = tested on: UO-31
SK-MEL-2 = tested on: SK-MEL-2

Measured: GI50

COC(=O)c1c(C)c2c(c(C)c1O)OC(=O)c1c(C)cc(O)c(C=O)c1O2
inactive: HOP-92 > 100 µM | COLO 205 > 100 µM | CCRF-CEM > 100 µM | MOLT-4 > 100 µM | DU-145 > 100 µM | HL-60 > 100 µM | SK-MEL-28 > 100 µM | HCC 2998 > 100 µM | M14 > 100 µM | UACC-62 45.3 µM | MCF7 > 100 µM | 786-0 > 100 µM | K562 > 100 µM | RXF 393 > 100 µM | U-251 > 100 µM | SW-620 > 100 µM | SR > 100 µM | HOP-62 > 100 µM

O=C(CCC(=O)CC(O)(C(F)(F)F)C(F)(F)F)CC(O)(C(F)(F)F)C(F)(F)F
inactive: HOP-92 20.7 µM | COLO 205 29.2 µM | CCRF-CEM 42.1 µM | MOLT-4 41.3 µM | DU-145 53.1 µM | HL-60 33.7 µM | SK-MEL-28 > 100 µM | HCC 2998 58.1 µM | M14 41.2 µM | UACC-62 31.7 µM | MCF7 37.8 µM | 786-0 46.1 µM | K562 33.4 µM | RXF 393 > 100 µM | UO-31 23.5 µM | U-251 65 µM | SW-620 63.5 µM | SR 47.9 µM | HOP-62 52.5 µM

COc1ncnc2c1cnn2Cc1cn(CCCCO)nn1
inactive: HOP-92 > 100 µM | COLO 205 > 100 µM | CCRF-CEM > 100 µM | MOLT-4 > 100 µM | DU-145 > 100 µM | SK-MEL-28 > 100 µM | HCC 2998 > 100 µM | M14 > 100 µM | UACC-62 > 100 µM | MCF7 > 100 µM | 786-0 > 100 µM | K562 > 100 µM | RXF 393 > 100 µM | UO-31 > 100 µM | U-251 > 100 µM | SW-620 > 100 µM | SR > 100 µM | HOP-62 > 100 µM | SK-MEL-2 > 100 µM

CS(=O)(=O)OC1CN2CCC1CC2 (stereo unspecified)
inactive: HOP-92 > 100 µM | COLO 205 > 100 µM | CCRF-CEM > 100 µM | MOLT-4 > 100 µM | DU-145 > 100 µM | HL-60 > 100 µM | SK-MEL-28 > 100 µM | M14 > 100 µM | UACC-62 > 100 µM | MCF7 > 100 µM | 786-0 > 100 µM | K562 > 100 µM | RXF 393 > 100 µM | UO-31 > 100 µM | U-251 > 100 µM | SW-620 > 100 µM | SR > 100 µM | HOP-62 > 100 µM | SK-MEL-2 > 100 µM

CCOP(=O)(OCC)c1ccc(=O)[nH]c1-c1cccs1
inactive: HOP-92 > 100 µM | COLO 205 > 100 µM | MOLT-4 > 100 µM | DU-145 > 100 µM | SK-MEL-28 > 100 µM | HCC 2998 > 100 µM | M14 > 100 µM | UACC-62 > 100 µM | MCF7 > 100 µM | 786-0 > 100 µM | K562 > 100 µM | RXF 393 > 100 µM | UO-31 > 100 µM | U-251 > 100 µM | SW-620 > 100 µM | SR > 100 µM | HOP-62 > 100 µM | SK-MEL-2 > 100 µM

CC1OC(n2cc(F)c(=O)[nH]c2=O)C(O[Si](C)(C)C(C)(C)C)C1O[Si](C)(C)C(C)(C)C (stereo unspecified)
inactive: COLO 205 14.4 µM | CCRF-CEM 16.6 µM | MOLT-4 13.2 µM | DU-145 13.6 µM | HL-60 5.93 µM | HCC 2998 13.4 µM | M14 20.2 µM | UACC-62 14.8 µM | MCF7 6.76 µM | 786-0 14.6 µM | K562 15.4 µM | RXF 393 14 µM | UO-31 12.8 µM | U-251 13.9 µM | SW-620 15 µM | SR 6.03 µM | HOP-62 21.5 µM | SK-MEL-2 16.3 µM

Cc1cc(C#N)c[n+](C)c1
inactive: COLO 205 > 100 µM | CCRF-CEM > 100 µM | MOLT-4 > 100 µM | DU-145 > 100 µM | HL-60 > 100 µM | SK-MEL-28 > 100 µM | HCC 2998 > 100 µM | M14 > 100 µM | UACC-62 > 100 µM | MCF7 > 100 µM | 786-0 > 100 µM | K562 > 100 µM | RXF 393 > 100 µM | UO-31 > 100 µM | U-251 > 100 µM | SW-620 > 100 µM | SR > 100 µM | HOP-62 > 100 µM | SK-MEL-2 > 100 µM

O=C1CSC(=S)N1c1ccco1
inactive: HOP-92 > 100 µM | COLO 205 79.4 µM | CCRF-CEM > 100 µM | MOLT-4 > 100 µM | DU-145 > 100 µM | HL-60 32.6 µM | SK-MEL-28 > 100 µM | M14 44.2 µM | MCF7 39.2 µM | 786-0 25.4 µM | K562 > 100 µM | RXF 393 > 100 µM | U-251 > 100 µM | SW-620 41.1 µM | SR > 100 µM | HOP-62 > 100 µM | SK-MEL-2 46.7 µM

COc1cccc(/N=N/C(=N\NC(=O)c2ccc(C)cc2)c2ccc(N(CCC#N)CCC#N)cc2C)c1
inactive: HOP-92 > 100 µM | COLO 205 > 100 µM | MOLT-4 > 100 µM | DU-145 > 100 µM | SK-MEL-28 > 100 µM | HCC 2998 > 100 µM | M14 > 100 µM | MCF7 32.1 µM | 786-0 > 100 µM | K562 > 100 µM | RXF 393 74.5 µM | UO-31 59.8 µM | U-251 > 100 µM | SW-620 > 100 µM | SR 61.1 µM | HOP-62 72.8 µM | SK-MEL-2 > 100 µM

N=C(N)SCCON1C(=O)c2ccccc2C1=O
inactive: HOP-92 > 100 µM | COLO 205 > 100 µM | CCRF-CEM > 100 µM | MOLT-4 > 100 µM | DU-145 > 100 µM | HL-60 > 100 µM | SK-MEL-28 > 100 µM | M14 > 100 µM | UACC-62 > 100 µM | MCF7 > 100 µM | 786-0 > 100 µM | K562 > 100 µM | RXF 393 > 100 µM | UO-31 > 100 µM | U-251 > 100 µM | SW-620 > 100 µM | SR > 100 µM | HOP-62 > 100 µM | SK-MEL-2 > 100 µM

Cc1ccc(C)c(N2C(=O)C(=O)c3c(C)ccc(C)c32)c1
inactive: HOP-92 23.6 µM | COLO 205 34.9 µM | MOLT-4 22.3 µM | DU-145 27.7 µM | HL-60 35.6 µM | SK-MEL-28 33.5 µM | M14 17.1 µM | UACC-62 16.3 µM | MCF7 23.4 µM | 786-0 29.3 µM | K562 22 µM | RXF 393 49.7 µM | UO-31 22.9 µM | U-251 17.2 µM | SW-620 27.7 µM | SR 15.4 µM | HOP-62 40.6 µM | SK-MEL-2 20.6 µM
